Assay results reported in the NIST ThermoML archive (doi:10.1021/je7000182).
Numbers after ± are expanded uncertainties.

What was measured:
[1] = for mass density: 101 kPa, Liquid
[2] = xn = mol fraction of the nth substance listed; conditions: x2 = 0; for mass density: 101 kPa, Liquid

CC(C)=O [acetone]
[1], Pendant drop shape
Conditions	surface tension liquid-gas [mN/m]
288.15 K	24.34 ± 0.31
298.15 K	23.02 ± 0.31
308.15 K	21.72 ± 0.3
318.15 K	20.38 ± 0.29
328.15 K	19.15 ± 0.29

[1]
Conditions	mass density [kg/m3]
288.15 K	795.65 ± 0.34
293.15 K	790.04 ± 0.34
298.15 K	784.33 ± 0.35
303.15 K	778.57 ± 0.36
308.15 K	772.76 ± 0.36
313.15 K	766.91 ± 0.37
318.15 K	760.99 ± 0.38
323.15 K	755.02 ± 0.39
328.15 K	748.98 ± 0.39

Cc1ccccc1 [toluene]
[1]
Conditions	mass density [kg/m3]	surface tension liquid-gas [mN/m]
288.15 K	871.41 ± 0.25	28.9 ± 0.6
293.15 K	866.77 ± 0.26	–
298.15 K	862.12 ± 0.26	27.76 ± 0.59
303.15 K	857.46 ± 0.27	–
308.15 K	852.78 ± 0.27	26.77 ± 0.57
313.15 K	848.08 ± 0.28	–
318.15 K	843.37 ± 0.29	25.72 ± 0.55
323.15 K	838.64 ± 0.29	–
328.15 K	833.9 ± 0.3	24.27 ± 0.53

O [water] + CC(C)=O
[2], Pendant drop shape
Conditions	surface tension liquid-gas [mN/m]
288.15 K	73.49 ± 0.65
298.15 K	71.98 ± 0.64
308.15 K	70.41 ± 0.63
318.15 K	68.78 ± 0.61
328.15 K	67.09 ± 0.6

[2]
Conditions	mass density [kg/m3]
323.15 K	988.01 ± 0.15
328.15 K	985.69 ± 0.15

Cc1ccccc1 [toluene] + CC(C)=O
[2]
Conditions	mass density [kg/m3]	surface tension liquid-gas [mN/m]
288.15 K	871.41 ± 0.25	28.9 ± 0.6
293.15 K	866.77 ± 0.26	–
298.15 K	862.12 ± 0.26	27.76 ± 0.59
303.15 K	857.46 ± 0.27	–
308.15 K	852.78 ± 0.27	26.77 ± 0.57
313.15 K	848.08 ± 0.28	–
318.15 K	843.37 ± 0.29	25.72 ± 0.55
323.15 K	838.64 ± 0.29	–
328.15 K	833.9 ± 0.3	24.27 ± 0.53
